Series [1] can be described thus: Coprecipitation of a chemical substance with a tannin or chelating agent and a metal salt in water. The conditions noted are these: (+)-catechin 60 mg and lead acetate 60 mg. The class given is physicochemical.
Procedure: After stirring for a while, a coprecipitate was formed.
In a similar manner, for the following combinations of a chemical substance and a metal salt, a proportion of the chemical substance taken into a coprecipitate was determined.
Chemical substance: (B) acephate, (C) acetamiprid, (D) urea;
Chelating agent: (Q) sodium ethylenediamine tetraacetate, (R) aminotrimethylenephosphonic acid;
Metal salt: (b) potassium acetate, (c) manganese acetate, (d) aluminum acetate, (e) nickel acetate, (f) cobalt acetate, (g) calcium acetate, (h) magnesium acetate, (i) magnesium chloride and (j) sodium acetate.
After completion of dissolving, the solution was analyzed for dinotefuran. […] After stirring for a while, a coprecipitate was formed. The supernatant was analyzed for dinotefuran A to determine a proportion of dinotefuran taken into the coprecipitate.
For series [2] the following is noted: cited from earlier work.

Regarding `CNC(=N[N+](=O)[O-])NCC1CCOC1` (racemic) [dinotefuran, (RS)-1-methyl-2-nitro-3-[(3-tetrahydrofuryl)methyl]guanidine], the “proportion of dinotefuran taken into the coprecipitate” value in series [1] is given as 41%.
With `CCOP(=O)(OCC)O/C(=C\Cl)c1ccc(Cl)cc1Cl` [CVP, Chlorfenvin-phos], the water solubility in series [2] is on record as 1500 ppm.
On to `C/C(=N\C#N)N(C)Cc1ccc(Cl)nc1` [acetamiprid], for which, in series [2], the water solubility was 4200 ppm.
In the case of `CCSCc1ccccc1OC(=O)NC` [etiofencarb], the water solubility in series [2] is 1800 ppm.
Consider `COc1nc(NC(C)C)nc(NC(C)C)n1` [promethone], for which the water solubility in series [2] is on record as 750 ppm.

Source of the values: patent US20030013684A1, “Agricultural composition” (priority 2001, published 2003).
